These results are taken from patent US8501713B2, “Drug combinations for the treatment of duchenne muscular dystrophy” (Summit Corporation PLC, priority 2007, dated 2013).

In one assay the test system is skeletal muscle cells. Briefly: Myotube formation and muscle protein expression in primary cultures of skeletal muscle cells. The class given is cell-based, mice. How it is done: GTE and EGCG also display unexpected pro myogenic properties. Primary cultures of skeletal muscle cells were established from both normal and dystrophic mice and treated with GTE and EGCG for 1-7 days. […] The amount of myotubes reached similar level with both agents compared to control thereafter. Western-blot analysis was performed on myotube cultures treated for 7 days.

For the next assay, the system named is mdx mice. Briefly: Forced exercise treadmill test: fatigue in mdx mice. The note with it: 50 mg/kg ip daily for 5 weeks in combination with prednisolone, FIG. 4. The assay is classed as in vivo, mdx mouse. How it is done:
The effect of combinations of a compound of formula (1) with a corticosteroid (prednisolone) was examined by measuring fatigue induced by a forced exercise regime in mdx mice. Four to five week-old male mdx mice were forced to exercise (30 min running on horizontal treadmill at 12 m/min twice a week on the same day and at the same time) over a five week treatment course. Each treatment group included 6 mice. At the end of the treatment course, exhaustion was induced by running on a horizontal treadmill at 5 m/min for 5 min, with incremental speed increases of 1 m/min each minute until exhaustion. The total distance run was then measured. […] Sedentary and vehicle only groups acted as negative controls.

The subject of assay [1] is Utrophin A promoter linked to a luciferase reporter gene. Briefly: Luciferase reporter assay (murine H2K cells). The assay is classed as cell-based. The following applies: for Activity: luciferase reporter assay in murine H2K cells, classified relative to control. The method, boiled down: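 Compound at 10 μM final was applied for 48 hrs to plated H2K mdx myoblasts (33° C, 10% CO2, interferon-containing medium) bearing a luciferase gene under the utrophin A promoter. Luminescence from lysed cells served as read-out.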
(Reporter assays use an easily measured gene product as a stand-in for the process of interest.)

The test system of the next assay is mdx hearts. The following applies: Khairallah et al. (2008); cited from earlier work.

For the molecule `O=C(O[C@@H]1Cc2c(O)cc(O)cc2O[C@@H]1c1cc(O)c(O)c(O)c1)c1cc(O)c(O)c(O)c1` [EGCG, epigallocatechin gallate], the “expression of muscle-specific proteins (dystrophin, sarcomeric alpha actinin, MyHC)” value in the assay on skeletal muscle cells (myotube cultures treated for 7 days, Western blot) is “promoted the expression of several muscle-specific proteins”. Moreover, the “rate of formation of myotubes” value in the assay on skeletal muscle cells (primary skeletal muscle cell cultures from normal and dystrophic mice, within first 2-4 days, MyHC staining) is on record as “concentration-dependently stimulated the rate of formation of myotubes”. `CCS(=O)(=O)c1ccc2oc(-c3ccc4ccccc4c3)nc2c1` [Example 390, 5-(ethylsulfonyl)-2-(naphthalen-2-yl)benzo[d]oxazole]: in the assay on mdx mice, the “exercise-induced fatigue (total distance run to exhaustion)” value is “act in synergy to reduce exercise-induced fatigue”. In addition, in assay [1] (Mus musculus, H2K mdx, luciferase level relative to control, H2K/mdx/Utro A reporter cells, compound 10 μM final concentration, read-out: Activity), the activity at 10 µM lay in the range of 301 to 400%.

As for `Cc1ccc2nc(-c3ccc(N)cc3)sc2c1` [Example 664], the Activity result in assay [1] was “++ (Between 201% and 300% relative to control)”. In the case of `O=C(NCCc1ccccc1)c1cc2ccccc2o1` [Example 665], the Activity result in assay [1] is “++ (Between 201% and 300% relative to control)”. Consider `Cn1c(CNc2ccc(Cl)cc2)nc2ccccc21` [Example 666], for which the Activity result in assay [1] was “++ (Between 201% and 300% relative to control)”. As for `CCC(=O)Nc1ccc(-c2nc3ccccc3s2)cc1` [Example 667], the Activity result in assay [1] was “++ (Between 201% and 300% relative to control)”.

On to `CCC(=O)Nc1ccc2oc(-c3cccc(C)c3)nc2c1` [Example 668], for which, in assay [1], the Activity result is “++ (Between 201% and 300% relative to control)”. Still for that read-out and setting: to `Cn1c(NC(=N)c2ccccc2)nc2ccccc21` [Example 669] belongs “++ (Between 201% and 300% relative to control)”; to `Cc1ccc(C(=O)Nc2ccc3c(c2)ncn3C)cc1` [Example 670], “++ (Between 201% and 300% relative to control)”. Turning to `O=C(Nc1nc2ccccc2s1)c1cc(Br)ccc1Cl` [Example 671], the Activity entry in assay [1] was “++ (Between 201% and 300% relative to control)”.

Regarding `Cc1ccc2nc(-c3ccc(NC(=O)c4cccs4)cc3)oc2c1` [Example 672], the Activity result in assay [1] was “++ (Between 201% and 300% relative to control)”. In the case of `Nc1c(C(=O)Nc2ccccc2F)sc2nc3c(cc12)CCC3` [Example 673], the Activity entry in assay [1] is “++ (Between 201% and 300% relative to control)”. `OCc1cn(-c2ccccc2)nc1-c1cc2ccccc2o1` [Example 674]: the Activity result in assay [1] is “++ (Between 201% and 300% relative to control)”. In the case of `COc1ccc(-c2nc3cc(C)ccc3o2)cc1` [Example 675], the Activity entry in assay [1] was “++ (Between 201% and 300% relative to control)”. Same read-out and setting: to `CCOc1ccc(NCc2nc3ccccc3n2C)cc1` [Example 676] belongs “++ (Between 201% and 300% relative to control)”.

`Cc1ccc2oc(-c3ccc(Cl)c(NC(=O)c4ccco4)c3)nc2c1` [Example 677]: the Activity entry in assay [1] was “++ (Between 201% and 300% relative to control)”. Same read-out and setting: to `Cc1nc(Nc2nc3ccccc3o2)nc2c1CCC2` [Example 678] belongs “++ (Between 201% and 300% relative to control)”; to `O=C(Nc1nc2ccccc2[nH]1)c1cccc(Cl)c1` [Example 679], “++ (Between 201% and 300% relative to control)”; to `O=C(Nc1ccc(-c2nc3ccccc3s2)cc1)C1CCCO1` (centres unmarked) [Example 680], “++ (Between 201% and 300% relative to control)”. Regarding `CC(=O)c1c(C)nc(Nc2nc3ccccc3o2)nc1C` [Example 681], the Activity entry in assay [1] was “++ (Between 201% and 300% relative to control)”. Still for that read-out and setting: to `Cc1ccnc(Nc2nc3ccccc3o2)n1` [Example 682] belongs “++ (Between 201% and 300% relative to control)”; to `CN(C)S(=O)(=O)c1ccc2nc(NC(=O)c3cccs3)sc2c1` [Example 683], “++ (Between 201% and 300% relative to control)”.

Turning to `Cc1ccc2oc(-c3cc(NC(=O)c4cncc(Br)c4)ccc3O)nc2c1` [Example 684], the Activity entry in assay [1] was “++ (Between 201% and 300% relative to control)”.

For `O=C(CSc1nc[nH]n1)Nc1ccc(-c2nc3ccccc3s2)cc1` [Example 685], the Activity entry in assay [1] was “++ (Between 201% and 300% relative to control)”. `COc1ccc2oc(-c3ccc(C)c(N)c3)nc2c1` [Example 686]: the Activity entry in assay [1] is “++ (Between 201% and 300% relative to control)”. On the same count and under the same terms, to `CNS(=O)(=O)c1ccc2nc(NC(=O)c3cccs3)sc2c1` [Example 687] belongs “++ (Between 201% and 300% relative to control)”. As to `Cc1ccc2sc(-c3ccc(NC(=O)c4cc(-n5cnnc5)ccc4Cl)cc3)nc2c1` [Example 688], the Activity result in assay [1] is “++ (Between 201% and 300% relative to control)”. Take `O=C(Nc1ccccc1F)C(=O)c1c[nH]c2ccccc12` [Example 689]: the Activity result in assay [1] was “++ (Between 201% and 300% relative to control)”. `C[C@]12C=CC(=O)C=C1CC[C@@H]1[C@@H]2[C@@H](O)C[C@@]2(C)[C@H]1CC[C@]2(O)C(=O)CO` [PDN, prednisolone, reference compound]: the “exercise-induced fatigue (total distance run to exhaustion)” value in the assay with mdx mice is listed as “act in synergy to reduce exercise-induced fatigue”. As for `CCCc1nn(C)c2c(=O)[nH]c(-c3cc(S(=O)(=O)N4CCN(C)CC4)ccc3OCC)nc12` [sildenafil], the myocardial contractile performance result with mdx hearts is “prevents deterioration of myocardial contractile performance”.
